The source of these data is paper PMC6482291, “Anticonvulsant Activity of Pterostilbene in Zebrafish and Mouse Acute Seizure Tests” (Neurochemical Research, 2019).

Data set [1] deals with PTZ-induced seizures in rats. Conditions: PTZ test in rats; cited from earlier work.
The test system of the next data set is MES seizures in mice. On the set-up: method as in PMID 27600732. The note with it: cited from earlier work.
The test system of data set [2] is 6 Hz psychomotor seizures in mice. More on the design: method as in PMID 27600732. Conditions: cited from earlier work.
The next data set concerns rats. On the set-up: method as in PMID 24717328. The note with it: acute and chronic administration; cited from earlier work.
In data set [3] the test system is mice. Kind of data set: Forced swim test. The class given is in vivo. The note with it: IMI 20 mg/kg ip; p < 0.05. How it is done:
The forced swim test was carried out according to the method described by Porsolt et al. to assess antidepressant properties of PTE. Mice were placed individually in a glass cylinder (25 cm high; 10 cm diameter) containing tap water to a depth of 11 cm. Water was maintained at temperature of 23–25 °C. Mice were permitted to swim for 6 min and duration of their immobility was recorded during the last 4 min of the test by a trained experimenter who was blinded to the treatment. Immobility time was recorded using cumulative stopwatches. Mouse was considered to be immobile when it was floating in the water without struggling and making no attempts to escape, it was making only these movements necessary to keep its head above the water. After each trial, the water in the cylinder was replaced with fresh water. Experimental groups consisted of 10 animals.
Data obtained in the forced swim test were expressed as the mean (in s) + SEM immobility time in each experimental group. Results were analyzed by one-way ANOVA.

Data set [4] relates to PTZ-induced seizures in mice. Nature of the data set: Timed iv PTZ seizure threshold test in mice. The class given is in vivo. The note with it: VPA 150 mg/kg ip, 15 min before test. How it is done: Each mice was placed in the cylindrical restrainer and the needle (27G, 3/4 in., Sterican®, B. Braun Melsungen AG, Melsungen, Germany) was injected into the lateral tail vein. The needle was attached by the polyethylene drain (PE20RW, Plastic One Inc. Roanoke, VA, USA) with the syringe containing 1% solution of PTZ (Sigma–Aldrich, St. Louis, MO, USA) in water and the syringe was located in the infuse pomp (model Physio 22, Hugo Sachs Elektronik–Harvard Apparatus GmbH, March-Hugstetten, Germany). The correct placement of the needle in the vein was confirmed based on the presence of the blood in the drain and the needle was protected against displacement by a peace of adhesive tape. Following injection, mice were took out from the restrainer and placed in the Plexiglas box for observation. The PTZ solution was infused into the vein at a constant rate of 0.2 ml/min. The time intervals from the start of infusion of PTZ solution to the beginning of three kinds of seizures, i.e., the first myoclonic twitch, generalized clonus with loss of the righting reflex and forelimb tonic extension, were noted. Infusion of PTZ solution was stopped immediately after onset of the tonic seizures, which usually were lethal. If animal survived the test, it was euthanized immediately. The threshold dose of PTZ (in mg/kg body weight) for each kind of seizures was calculated according to the following formula: PTZmg/kg=infusion durations×infusion rateml/s×PTZ concentrationmg/ml/weightkg
Experimental groups consisted of 9–13 animals. The data obtained in the iv PTZ test are presented as the threshold dose of PTZ (in mg/kg) + standard error of the mean (SEM) needed to elicit the respective kind of seizures. The data were analyzed by one-way ANOVA followed by the Tukey’s multiple comparison test. Statistical significance was noted when p values were equal or lower than 0.05.

The subject of data set [5] is maximal electroshock seizures in mice. Kind of data set: Maximal electroshock seizure threshold (MEST) test. The class given is in vivo. The note with it: VPA 150 mg/kg ip. The text has this: Seizures in the MEST test were evoked by applying a sine-wave alternating current (maximal output voltage 500 V, 50 Hz for 0.2 s) generated by constant current stimulator (Rodent Shocker, Type 221, Hugo Sachs Elektronik, Freiburg, Germany). The stimulation was delivered by saline-socked transcorneal electrodes. Before the stimulation 1% solution of tetracaine hydrochloride was applied into animals’ eyes for local anesthesia. During the stimulation animals were restrained manually and immediately after the stimulation they were placed in the Plexiglas box for observation. The endpoint evaluated in the test was the maximal electroconvulsion which was defined as extension of the hindlimbs above a 90° angle to the torso of animal.
The threshold for maximal electroshock was determined according to the up-and-down method described by Kimball et al.. The mice in the experimental group were subjected to the stimuli with different current intensities (range of 8–30 mA) which changes in 0.06-log steps. If stimulated mouse respond with seizures, the next mouse in the group was stimulated with current of intensity 0.06-log step lower than the previous one. […] Groups of 20 stimulated animals were used to calculate the threshold current strength (CS50 in mA; the current strength which induces tonic hindlimb extension in 50% of the tested animals) with SEM.
CS50 values were compared with one-way ANOVA followed by the Tukey’s multiple comparison test.
On the technique in general: In the maximal electroshock model the usual endpoint is tonic extension of the hind limbs.

Data set [6] has as its system 6 Hz-induced psychomotor seizures in mice. Kind of data set: 6 Hz psychomotor seizure threshold test. The class given is in vivo. The note with it: VPA 50 mg/kg ip, 15 min before test; 95% confidence limits in brackets. The text has this: Psychomotor (limbic) seizures were induced by transcorneal stimulation (6 Hz, 0.2 ms rectangular pulse, 3 s duration) generated by a Grass S48 stimulator coupled with a constant current unit CCU1 (both from Grass Technologies, West Warwick, RI, USA). Before stimulation a drop of ocular anesthetic, 1% tetracaine hydrochloride solution, was applied into the animals’ corneas. The electrodes were soaked in saline to ensure the good electrical contact. During the stimulation animals were restrained manually and immediately after the stimulation were placed in a Plexiglas box for observation of presence or absence of the psychomotor seizures. These seizures were characterized by immobilization or stun, often associated with rearing, forelimb clonus, twitching of vibrissae and elevated tail (Straub-tail), lasting at least 10 s from the stimulation. Lack of the above symptoms or their cessation within 10 s from the stimulation was considered as absence of seizure activity.
In the present study two 6 Hz-induced psychomotor seizure tests were performed: (1) the 6 Hz psychomotor seizure threshold test which employed stimulation at varied current intensities, and (2) the 6 Hz psychomotor seizure test with supramaximal stimulation at 32 mA and 44 mA.
In the 6 Hz psychomotor seizures threshold test, threshold current intensity (CS50 in mA) was estimated in groups of 20 animals according to the above mentioned up-and-down method.

The subject of data set [7] is mice. Nature of the data set: Grip-strength test. The class given is in vivo. The note with it: 15 min before test. How it is done: The acute effect of PTE on the skeletal muscles strength in mice was determined in the grip strength test. The apparatus for this test (BioSeb, Chaville, France) consisted of a steel wire grid (8 × 8 cm) connected to an isometric force transducer. Each mouse was lifted by tail and allowed to grasp the grid with its forepaws and then it was gently pulled backward until its released the grid. The maximal force in newtons (N) exerted by mouse before leaving the grid was recorded. The mean of three consecutive measurements for each animal was calculated and normalized to body weight (mN/g).
Experimental groups consisted of 12 animals. Results obtained in the grip-strength test were compared using one-way ANOVA followed by the Tukey’s post-hoc multiple comparison test.

Data set [8] deals with mice. Nature of the data set: Chimney test. In kind it is in vivo. Conditions: 15 min before test. How it is done:
The chimney test was performed to evaluate influence of PTE on motor coordination in mice. During the test mice had to climb backwards up the plastic transparent cylinder (inner diameter 3 cm and length 30 cm) with gravelly inside. The inability of mice to escape from the cylinder within 60 s was considered as an motor impairment. Results obtained in the test were presented as percent of impaired mice in groups of 10–12 animals and were compared with the Fisher’s exact probability test.

With `Oc1ccc(/C=C/c2cc(O)cc(O)c2)cc1` [RES, resveratrol], in data set [1], the “duration of clonic seizures” value was “reduced the duration” and the “incidence of the generalized tonic-clonic seizures” value was “decreased incidence”. In addition, the “anticonvulsant activity in the MES test” value in the data set on MES seizures in mice is “showed significant anticonvulsant activity neither in the MES nor 6 Hz psychomotor seizure tests”. For the same compound, the “anticonvulsant activity in the 6 Hz psychomotor seizure test” value in [2] is reported as “showed significant anticonvulsant activity neither in the MES nor 6 Hz psychomotor seizure tests”. Further, in the data set on rats, the “immobility time in the forced swim test” value is listed as “decreased immobility time”.

Turning to `CN(C)CCCN1c2ccccc2CCc2ccccc21` [IMI, imipramine, reference compound], the “immobility time vs control” value with mice [3] is on record as “Statistically significant difference”.

For the compound `CCCC(CCC)C(=O)O` [VPA, valproic acid, reference compound], the “threshold for the first myoclonic twitch vs negative control” value in data set [4] (p < 0.001) is given as “Statistically significant increases”. Moreover, the “increase of threshold for generalized clonic seizures vs negative control” value in [4] (p < 0.01) is recorded as “over 45%”. The “threshold for tonic forelimb extension vs negative control” value in data set [4] (p < 0.01) is “Statistically significant increase”. For the same compound, in data set [5] (15 min before test, 95% confidence limits in brackets), the “CS50 (seizure threshold)” value is recorded as 14.13 (13.27–15.04) mA. In data set [5] (p < 0.001), the “increase of seizure threshold vs negative control” value is ~ 49%. The “CS50 (psychomotor seizure threshold)” value in data set [6] was 15.97 (15.13–16.85) mA. Moreover, the Neuromuscular strength with mice [7] (VPA 50 mg/kg ip) is recorded as 31.12 ± 1.20 mN/g; with mice [7] (VPA 150 mg/kg ip) it was 25.36 ± 0.92 mN/g. The “Impairment of motor coordination (percentage of animals)” value with mice [8] (VPA 50 mg/kg ip) and in the data set with mice [8] (VPA 150 mg/kg ip) was 0% throughout.
